{"source": "patent US20180000782A1", "about": "“THERAPEUTIC AGENT FOR KERATOCONJUNCTIVE DISORDERS” (priority 2012, published 2018)", "key": {"[1]": {"tested_on": "primary subconjunctival fibroblasts", "test": "Suppression of three-dimensional collagen gel contraction, primary subconjunctival fibroblasts (Example 2)", "assay_type": "cell-based, rabbit", "settings": "TGF-β1 1 ng/ml, RARγ agonist A 1, 10, 100 nM, after 48 hours, FIG. 2", "method": "(§1) Primary subconjunctival fibroblasts and primary keratocytes were used to assess the suppression effect of a tested compound on three-dimensional collagen gel contraction in accordance with the method of Nishida et al. As in Example 1, primary subconjunctival fibroblasts were grown and detached from a culture slide. After washing, a cell suspension was made. The resulting suspension (1.1×10^7 cells/well MEM), type I collagen solution (5 mg/ml), 10×MEM, Reconstitution Buffer, and water were mixed on ice at 0.2:7:1:1:1.8 (volume ratio). A culture dish coated with 1% BSA was inoculated with 0.5 ml of the mixture, which was incubated for one hour at 37° C. to make a collagen gel. Then, 0.5 ml of serum free media, to which a certain amount (1 ng/ml) of TGF-β1 (R&D Systems) and RARγ agonist A at each of the concentrations 1 nM, 10 nM, and 100 nM were added, were each added onto the above-described gel. The gel, together with a gel to which an agent-free serum-free medium was added, was continuously incubated at 37° C. The diameter of gels was measured from the time when 24 hours has past."}, "MMP-3": {"tested_on": "MMP-3", "test": "Suppression of expression and activation of MMP-3, western blot of keratocyte supernatant", "assay_type": "cell-based, rabbit", "settings": "R667 1×10^−6 to 1×10^−2 μM, 12 hours of pre-treatment; IL-113 0.1 ng/ml, 24 hours; FIG. 5A", "method": "(§2) It is believed that secretion or expression of protease, i.e., matrix metalloproteinases (MMP), is associated with the degradation of type I collagen. In this regard, suppression of expression and activation of MMP-1, 2, 3, and 9 by RARγ agonist A was investigated. Primary keratocytes collected from a normal rabbit eye ball were cultured for 24 hours in a serum-free MEM medium. RARγ agonist A ([…]) ([…] concentration: 1×10^-6 μM, 1×10^-5 μM, 1×10^-4 μM, 1×10^-3 μM, 1×10^-2 μM) was added to the obtained culture solution and 12 hours of pre-treatment was performed. As a positive control, 10 nM of dexamethasone (Dex), which is a synthetic steroid, was added and pre-treatment was similarly performed. Then, IL-113 (0.1 ng/ml) was added for stimulation, and the supernatant was collected after 24 hours. The following western blot analysis and gelatin zymography analysis were used on the collected culture solution. After developing the supernatant of the collected culture solution in SDS-PAGE using 10% polyacrylamide gel, the separated proteins were transferred onto a nitrocellulose filter. Then, non-specific sites on the nitrocellulose filter were blocked and incubated for 24 hours at 4° C. with anti-human MMP-1 antibodies (R&D Systems) and anti-rabbit MMP-3 antibodies (Daiichi Fine Chemical Co., Ltd). ECL® reagent (GE Healthcare) was used for detection."}, "[2]": {"tested_on": "male Japanese white rabbits", "test": "Suppression of corneal opacity and ulceration, LPS injected into the corneal stroma", "assay_type": "in vivo, rabbit", "settings": "0.1% R667 (24 mM), 50 μl instillation, four times daily until day 10; 1% LPS into the corneal stroma; FIG. 6B", "method": "Systemic anesthesia was applied to male Japanese white rabbits (body weight 2.5-3.5 kg, 27 rabbits) by intramuscular administration of a solution of a mixture of ketamine and xylazine. Then, topical anesthesia was applied by a 0.4% oxybuprocaine hydrochloride instillation. Furthermore, 30 μl of 1% LPS (Sigma Aldrich) was injected into the corneal stroma of one eye, but not in the other eye.\n50 μl of 0.1% PBS/0.1% polysorbate 80 solution containing RARγ agonist A (R667: 0.1%, 24 mM) was instillatively administered to the rabbits injected with LPS twice after the injection on the day of LPS injection and four times daily thereafter until day 10 by using a micropipette. As a control, a 0.1% PBS/0.1% polysorbate 80 solution free of RARγ agonist A (Vehicle) was similarly administered. FIGS. 6A and 6B show representative examples of a control and a case where RARγ agonist A was administered."}, "MMP-9": {"tested_on": "MMP-9", "test": "Suppression of expression and activation of MMP-9, gelatin zymography of keratocyte supernatant", "assay_type": "cell-based, rabbit", "settings": "R667 1×10^−6 to 1×10^−2 μM, 12 hours of pre-treatment; IL-113 0.1 ng/ml, 24 hours; FIG. 5B", "method": "(§3) It is believed that secretion or expression of protease, i.e., matrix metalloproteinases (MMP), is associated with the degradation of type I collagen. In this regard, suppression of expression and activation of MMP-1, 2, 3, and 9 by RARγ agonist A was investigated. Primary keratocytes collected from a normal rabbit eye ball were cultured for 24 hours in a serum-free MEM medium. RARγ agonist A ([…]) ([…] concentration: 1×10^-6 μM, 1×10^-5 μM, 1×10^-4 μM, 1×10^-3 μM, 1×10^-2 μM) was added to the obtained culture solution and 12 hours of pre-treatment was performed. As a positive control, 10 nM of dexamethasone (Dex), which is a synthetic steroid, was added and pre-treatment was similarly performed. Then, IL-113 (0.1 ng/ml) was added for stimulation, and the supernatant was collected after 24 hours. The following western blot analysis and gelatin zymography analysis were used on the collected culture solution. After developing the supernatant of the collected culture solution on SDS-PAGE using 10% polyacrylamide gel containing 0.1% of gelatin, it was incubated for one hour at room temperature with a TBS solution containing 2.5% Triton X-100. The gel after incubation was dyed with a solution of Coomassie Brilliant Blue (Wako Pure Chemical Industries, Ltd.) and decolored with a 5% methanol-7.5% acetic acid solution (Nacalai Tesque, Inc)."}, "MMP-1": {"tested_on": "MMP-1", "test": "Suppression of expression and activation of MMP-1, western blot of keratocyte supernatant", "assay_type": "cell-based, rabbit", "settings": "R667 1×10^−6 to 1×10^−2 μM, 12 hours of pre-treatment; 0.1 ng/ml, 24 hours; FIG. 5A", "method": "as §2"}, "primary keratocytes [3]": {"tested_on": "primary keratocytes", "test": "Suppression of three-dimensional collagen gel degradation in primary keratocytes by RARγ agonist A, B or C (Example 3)", "assay_type": "cell-based, rabbit", "settings": "R667 1 nM, CD437 1 nM and 10 nM, BMS961 10 nM; stimulant IL-1β 10 ng/ml and Plasminogen 60 μg/ml; 48 hours; FIG. 4", "description": "As in Example 1, primary keratocytes were grown and detached from a culture slide. After washing, a cell suspension was made. The resulting suspension (1.1×10^7 cells/well MEM), type I collagen solution (5 mg/ml), 10×MEM, Reconstitution Buffer, and water were mixed on ice at 0.2:7:1:1:1.8 (volume ratio). A culture dish coated with 1% BSA was inoculated with 0.5 ml of the mixture, which was incubated for one hour at 37° C. to make a collagen gel.\nAfter 48 hours of culturing, collagen was hydrolyzed and the amount of hydroxyproline, which is the collagen degradation product, was measured by the same method as Example 1 to assess the effect of suppressing collagen degradation of each RARγ agonist."}, "[4]": {"tested_on": "normal rabbit primary keratocytes", "test": "Suppression of three-dimensional collagen gel degradation in normal rabbit primary keratocytes (Example 1)", "assay_type": "cell-based", "settings": "R667 0.1-1000 nM; stimulant 10 ng/ml and Plasminogen 60 μg/ml; 48 hours of culturing; FIG. 1", "method": "Normal rabbit corneal cells were used to assess the suppression effect of a tested compound on three-dimensional collagen gel degradation in accordance with the method of Nishida et al (Investigative Ophthalmology & Visual Science 42: 1247-1253 (2001)).\nPrimary keratocytes collected from a normal rabbit eye ball was grown to a confluent state and detached from a culture slide with 0.05% Trypsin-EDTA. After washing in a serum free medium (product number 11095; Gibco), the number of cells were counted. The obtained primary keratocytes were mixed with the type I collagen solution Cellmatrix Type I-A (product number 637-00653; Nitta Gelatin Inc.) and Reconstitution Buffer (product number 635-00791; Nitta Gelatin Inc.) and dispensed into a 24-well plate so that the final concentration would be 1×10^5 cells/well to make a collagen gel. […]\nAfter 48 hours of culturing, the supernatant was ultrafiltrated, 100 μl of concentrated hydrochloric acid was added and heated, and the collagen was hydrolyzed. […] The amount of hydroxyproline, which is the collagen degradation product in the solution, was measured in accordance with the method of Bergman et al (Analytical Chemistry 35(12): 1961-1965 (1963)) to assess the effect of suppressing collagen degradation of RARγ agonist A. The results are shown in FIG. 1."}, "MMP-2": {"tested_on": "MMP-2", "test": "Suppression of expression and activation of MMP-2, gelatin zymography of keratocyte supernatant", "assay_type": "cell-based, rabbit", "settings": "R667 1×10^−6 to 1×10^−2 μM, 12 hours of pre-treatment; 0.1 ng/ml, 24 hours; FIG. 5B", "method": "as §3"}, "primary keratocytes [5]": {"tested_on": "primary keratocytes", "test": "Suppression of three-dimensional collagen gel contraction, primary keratocytes (Example 2)", "assay_type": "cell-based, rabbit", "settings": "TGF-β1, FIG. 3", "method": "as §1, with “past. The gel diameter was measured for primary keratocytes in a similar manner to the primary subconjunctival fibroblasts.” for “past.”"}}}
{"smiles": "CC1(C)CCC(C)(C)c2cc(Cn3cccn3)c(/C=C/c3ccc(C(=O)O)cc3)cc21", "note": "[RARγ agonist A, (E)-4-(2-{3-[(1H-pyrazole-1-yl)methyl]-5,5,8,8-tetramethyl-5,6,7,8-tetrahydronaphthalene-2-yl}vinyl)benzoic acid]", "values": [{"measurement": "suppression of collagen gel contraction (diameter of collagen gel)", "setting": "[1]", "value": "can suppress"}, {"measurement": "expression and activation of MMP-3 (bands of Pro-MMP-3 and active MMP-3)", "setting": "MMP-3", "value": "concentration-dependently suppresses"}, {"measurement": "corneal opacity and ulceration", "setting": "[2]", "value": "corneal opacity and ulceration were not observed"}, {"measurement": "expression and activation of MMP-9 (bands of Pro-MMP-9 and active MMP-9)", "setting": "MMP-9", "value": "concentration-dependently suppresses"}, {"measurement": "expression and activation of MMP-1 (bands of Pro-MMP-1 and active MMP-1)", "setting": "MMP-1", "value": "concentration-dependently suppresses"}, {"measurement": "effect of suppressing collagen degradation (ratio of amount of hydroxyproline)", "setting": "primary keratocytes [3]", "value": "exhibited an effect of suppressing keratoconjunctive collagen degradation"}, {"measurement": "effect of suppressing collagen degradation (amount of hydroxyproline)", "setting": "[4]", "value": "dosage-dependent effect of suppressing keratoconjunctive collagen degradation"}, {"measurement": "expression and activation of MMP-2 (bands of Pro-MMP-2 and active MMP-2)", "setting": "MMP-2", "value": "concentration-dependently suppresses"}, {"measurement": "suppression of collagen gel contraction (diameter of collagen gel)", "setting": "primary keratocytes [5]", "value": "can suppress"}]}
